Laboratory results reported in US20030017148A1, “Prevention of insulin-dependent diabetes, complications thereof, or allograft rejection by inhibition of cyclooxygenase-2 activity” (Oklahoma Medical Research Foundation, priority 2000, published 2003).
Where “and” joins values, the source holds several entries; their conditions need not be identical. Equal entries are not always repeated.

What was measured:
STZ-induced IDDM [1] = assay: Multiple low-dose STZ-induced IDDM in mice, NS-398 treatment; assay type: in vivo
Method: Chemicals: Streptozotocin was obtained from Sigma Chemical Company (St. Louis, Mo.). NS-398 was obtained from Cayman Chemicals (Ann Arbor, Mich.). Determination of blood glucose level was performed using the glucose oxidase kit obtained from Sigma Chemical Co. Total glycated hemoglobin (Hb A1) was measured using a kit from Sigma. Animal treatment: Ball/c or CD-1 mice (male, 6-8 weeks) from Charles-River (Indianapolis, Ind.) were used in this study. STZ was dissolved in citrate buffer pH 4.5 and was administered within 10 minutes of its dissolution. Animals receiving NS-398 treatment were injected with this compound 15 min prior to STZ treatment. Since STZ is both toxic and carcinogenic, extreme caution was practiced in its handling. NS-398 was dissolved in dimethylsulfoxide (DMSO). […] To control for the effect of DMSO, mice in the STZ group received 40 μl injections of DMSO for the same number of days as the STZ+NS-398 group. At different time intervals after the treatments, tail tip blood was drawn and used for the measurement of blood glucose levels and/or glycated hemoglobin. [table] […] PBS (control group) for 5 consecutive days. […] The STZ group received only STZ injections. […] For histological studies, 35 days following the treatments (multiple low-dose STZ±NS-398), mice were anaesthetized and perfused with 4% paraformaldehyde and pancreata were removed and post-fixed for an additional day. The paraffin sections (6 μ) were stained with Gambier's aldehyde fuchsia for the identification of pancreatic β cells. Untreated mice were used as controls for these studies. Statistical analyses: Statistical analyses of the data were performed using one way analysis of variance (Anoa) followed by Student's t-test. In order to determine whether NS-398 treatment would protect the animals against the diabetogenic action of STZ, blood glucose level, and the level of glycated hemoglobin (a marker of chronic hyperglycemia) were monitored in the mice treated with STZ in the absence and presence of NS-398. Histological studies were also performed on the pancreata of the treated animals in order to obtain morphological information on the status of the islet β cells.

STZ-induced IDDM [2] = assay: Multiple low-dose STZ-induced IDDM in CD-1 mice, PDTC treatment; assay type: in vivo; conditions: for Blood Glucose Level: STZ 40 mg/Kg 5 days, PDTC 150 mg/Kg daily, 100 mg/Kg from day 7, 11 treatments
Method: Method. CD-1 mice were divided into two groups (6 mice/group). Group 1 was treated with STZ (40 mg/Kg dissolved in cold sodium citrate buffer, pH 4.5) for 5 consecutive days. Group 2 was treated with STZ as described and received daily treatments of PDTC (150 mg/Kg, dissolved in physiological saline) starting from day 1 of STZ treatment. The PDTC dose was reduced to 100 mg/Kg at day 7 of the treatment. A total of 11 daily treatments of PDTC were given to the mice in this group (up to day 11 from the start of STZ treatment). Blood glucose levels were periodically determined in these mice.

[3] = test system: high-dose STZ-induced IDDM; assay: Single high-dose STZ-induced IDDM in mice, NS-398 pre-treatment; assay type: in vivo; conditions: 48 h after single STZ 220 mg/Kg; NS-398 10 mg/Kg 15 min prior to STZ
Method: Animal treatment: Ball/c or CD-1 mice (male, 6-8 weeks) from Charles-River (Indianapolis, Ind.) were used in this study. STZ was dissolved in citrate buffer pH 4.5 and was administered within 10 minutes of its dissolution. Animals receiving NS-398 treatment were injected with this compound 15 min prior to STZ treatment. Since STZ is both toxic and carcinogenic, extreme caution was practiced in its handling. NS-398 was dissolved in dimethylsulfoxide (DMSO). […] To control for the effect of DMSO, mice in the STZ group received 40 μl injections of DMSO for the same number of days as the STZ+NS-398 group. At different time intervals after the treatments, tail tip blood was drawn and used for the measurement of blood glucose levels and/or glycated hemoglobin. [table] […] PBS (control group) for 5 consecutive days. […] The STZ group received only STZ injections.

[4] = in vivo; cited from earlier work
COX-2 = biological target: T1, COX-2 (Homo sapiens, UniProt P35354); conditions: cellular systems; cited from earlier work
T1 sequence (P35354 18-604): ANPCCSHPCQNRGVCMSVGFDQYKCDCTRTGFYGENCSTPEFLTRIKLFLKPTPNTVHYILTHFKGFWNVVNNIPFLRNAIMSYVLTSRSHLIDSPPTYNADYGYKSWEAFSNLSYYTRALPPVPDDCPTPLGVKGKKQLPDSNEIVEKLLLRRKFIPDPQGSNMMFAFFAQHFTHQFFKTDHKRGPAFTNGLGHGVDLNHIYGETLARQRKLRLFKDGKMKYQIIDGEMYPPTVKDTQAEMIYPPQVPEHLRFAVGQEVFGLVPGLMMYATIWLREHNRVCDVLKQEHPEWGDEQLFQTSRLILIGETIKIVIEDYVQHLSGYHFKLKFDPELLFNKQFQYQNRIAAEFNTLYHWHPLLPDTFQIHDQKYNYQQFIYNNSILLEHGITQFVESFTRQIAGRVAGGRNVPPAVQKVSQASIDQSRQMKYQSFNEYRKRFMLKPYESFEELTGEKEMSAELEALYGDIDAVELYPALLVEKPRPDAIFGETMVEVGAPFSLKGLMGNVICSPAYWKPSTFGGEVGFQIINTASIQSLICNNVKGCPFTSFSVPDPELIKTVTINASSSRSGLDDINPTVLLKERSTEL

[5] = test system: IDDM in low-dose STZ model; conditions: cited from earlier work
[6] = Tolerability of indomethacin in STZ-treated mice; conditions: indomethacin 3 mg/Kg/day with STZ 40 mg/Kg/day for 5 days; 5 mice/group
Method: In experiment 4, two groups of mice (5 mice/group) were treated with STZ (40 mg/Kg/day for 5 days). One group of these mice received daily treatments of indomethacin (3 mg/Kg/day). Indomethacin was dissolved in DMSO and an injection volume of 40 μl was used.

## CN(N=O)C(=O)N[C@H]1C(O)O[C@H](CO)[C@@H](O)[C@@H]1O (mixture of isomers) [STZ, Streptozotocin]
STZ-induced IDDM [1]; 30 days following completion of STZ treatment, STZ 40 mg/Kg/day 5 days, NS-398 5 mg/Kg/day ip from day 1, continued 6 days after STZ, mean ± SD
  Blood Glucose Level: 304.0 ± 91.6 mg/dL
STZ-induced IDDM [1]; 30 days following treatment, STZ 40 mg/Kg/day 5 days ± NS-398
  glycated hemoglobin level (FIG. 2): significantly elevated levels of glycated hemoglobin
STZ-induced IDDM [1]; 35 days following multiple low-dose STZ ± NS-398
  histology of pancreatic islet β cells (aldehyde fuchsin, FIG. 3): nearly completely destroyed
STZ-induced IDDM [1]; experiment 1: STZ 40 mg/Kg/day ip 5 days, NS-398 10 mg/Kg/day, 11 injections from day 1, followed up to 28 days after cessation of NS-398
  blood glucose level (FIG. 1): progressive rise in the blood glucose concentration
STZ-induced IDDM [2]; day 11 of treatment
  Blood Glucose Level: 249.0 ± 50.2 mg/dL
STZ-induced IDDM [2]; day 19 of treatment
  Blood Glucose Level: 446.7 mg/dL and 446.7 ± 106.1 mg/dL
[3]
  Blood Glucose Level: 311.1 ± 80.7 mg/dL

## CS(=O)(=O)Nc1cc2c(cc1Oc1ccc(F)cc1F)C(=O)CC2 [Flosulide]
[4]
  ID50: < 0.1 mg/kg

## Cc1nc(C2CCCCC2)c(-c2ccc(S(N)(=O)=O)c(F)c2)o1 [JTE-522, 4-(4-cyclohexyl-2-methyloxazol-5-yl)-2-Fluorobenzene Sulfonamide]
COX-2
  IC50: 15.1 nM

## CS(=O)(=O)Nc1cc2c(cc1Sc1ccc(F)cc1F)C(=O)CC2 [L-745,337, 5-methane sulfonamido-6-(2,4-difluorothiophenyl)-1-indanone]
[4]
  ED50: 2 mg/kg
  ID50: 0.4 mg/kg

## Cc1ccc(-c2ncc(Cl)cc2-c2ccc(S(C)(=O)=O)cc2)cn1 [L-791,456, 5-Chloro-3(4-methylsulfonyl) phenyl-2-(2-methyl-5-pyridinyl) pyridine]
[4]
  ED50: 0.6 mg/kg

## CC(C)(C)[N+]([O-])=Cc1ccccc1 [PBN, phenyl N-tert-butylnitrone]
[5]
  protection against IDDM: protect against IDDM

## CCSc1nnc(-c2cc(C(C)(C)C)c(O)c(C(C)(C)C)c2)s1 [PD164387]
[4]
  ED40: 7.1 mg/kg

## S=C(S)N1CCCC1 [PDTC, Pyrrolidine Dithiocarbamate]
STZ-induced IDDM [2]; PDTC daily from day 1 of STZ treatment
  protection from STZ-induced IDDM: protected from STZ-induced IDDM
STZ-induced IDDM [2]; day 11 of treatment
  Blood Glucose Level: 190.8 ± 23.2 mg/dL
STZ-induced IDDM [2]; day 19 of treatment
  Blood Glucose Level: 199.6 mg/dL and 199.6 ± 35.6 mg/dL

## CS(=O)(=O)c1ccc(C2=C(c3ccc(F)cc3)CCC2)cc1 [SC-57666, 1-[2-(4-Fluorophenyl)cyclopenten-1-yl]-4-(methylsulfonyl) benzene]
[4]
  ED50: low

## COc1ccc2c(c1)c(CC(=O)O)c(C)n2C(=O)c1ccc(Cl)cc1 [indomethacin]
[6]
  mice that died during or following treatment: Four out of five
